Laboratory results from patent US11464770B2, “Anticancer pharmaceutical composition” (NATIONAL CANCER CENTER, priority 2016, dated 2022).
Read-outs that look alike come from different tables or passages of the source.

Tests used:
[1] = tested on: prostate cancer cell lines (e.g. DU145/TXR); assay: Cell based assay, cell viability (CellTiter-Glo), prostate cancer cell lines; details: Homo sapiens, 72 hours treatment, final concentration 0 to 2 μM
Procedure, shortened: (§1)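 Trypsin-EDTA-detached lines seeded; 24 h later compound added (final 0–2 μM); 72 h exposure; ATP luminescence viability readout.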

[2] = tested on: lung cancer cell lines (e.g. NCI-H23, NCI-H1229); assay: Cell based assay, cell viability (CellTiter-Glo), lung cancer cell lines; details: Homo sapiens, 72 hours treatment, CellTiter-Glo
Procedure, shortened: as §1

brain cancer cell lines = assay: Cell based assay, cell viability (CellTiter-Glo), brain cancer cell lines; details: Homo sapiens
neuroblastoma cell lines = assay: Cell based assay, cell viability (CellTiter-Glo), neuroblastoma cell lines; details: Homo sapiens; SH-SY5Y cell line
Procedure, shortened: as §1

liver cancer cell lines = assay: Cell based assay, cell viability (CellTiter-Glo), liver cancer cell lines; details: Homo sapiens, SK-HEP1; SK-HEP-1 cell line
Procedure, shortened: as §1

[3] = tested on: ovarian cancer cell lines; assay: Cell based assay, cell viability (CellTiter-Glo), ovarian cancer cell lines; details: Homo sapiens; OVCAR-3 cells
Procedure, shortened: as §1

renal cancer cell lines = assay: Cell based assay, cell viability (CellTiter-Glo), renal cancer cell lines; details: Homo sapiens; ACHN cells
Procedure, shortened: as §1

[4] = CWR22 cells, read-out: IC50, prostate cancer cell line CWR22
[5] = DU-145, DU145/TXR cells, read-out: IC50, prostate cancer cell line DU145/TXR
[6] = DU-145, DU145 cells, read-out: IC50, prostate cancer cell line DU145
[7] = LNcap cells, read-out: IC50, prostate cancer cell line LNcap
[8] = PC-3 cells, read-out: IC50, prostate cancer cell line PC-3
[9] = A549 cells, read-out: IC50, lung cancer cell line A549
[10] = DMS 114 cells, read-out: IC50, lung cancer cell line DMS 114
[11] = NCI-H23 cells, read-out: IC50, lung cancer cell line NCI-H23
[12] = NCI-H460 cells, read-out: IC50, lung cancer cell line NCI-H460
[13] = NCI-H522 cells, read-out: IC50, lung cancer cell line NCI-H522
[14] = NCI-H1299 cells, read-out: IC50, lung cancer cell line NCI-H1299
[15] = NCI-H1437 cells, read-out: IC50, lung cancer cell line NCI-H1437
[16] = U138-MG, U-138 MG cell line, read-out: IC50, Brain cancer cell line U-138 MG
[17] = T98G cell line, read-out: IC50, Brain cancer cell line T98G
[18] = U-251 MG cell line, read-out: IC50, Brain cancer cell line U-251 MG

SMILES	IC50 [1, 4] [µM]	IC50 [1, 5] [µM]	IC50 [1, 6] [µM]	IC50 [1, 7] [µM]	IC50 [1, 8] [µM]	IC50 [2, 9] [µM]	IC50 [2, 10] [µM]	IC50 [2, 11] [µM]	IC50 [2, 12] [µM]	IC50 [2, 13] [µM]	IC50 [2, 14] [µM]	IC50 [2, 15] [µM]	IC50 (brain cancer cell lines; [16]) [µM]	IC50 (brain cancer cell lines; [17]) [µM]	IC50 (brain cancer cell lines; [18]) [µM]	IC50 (neuroblastoma cell lines) [µM]	IC50 (liver cancer cell lines) [µM]	IC50 [3] [µM]	IC50 (renal cancer cell lines) [µM]	IC50 ([2]; MRC-5 cells, read-out: IC50) [µM]
CC(=O)c1c([S+]([O-])Cc2c(F)cccc2Cl)[nH]c2c(Br)ccc(Cl)c2c1=O (stereo not shown) [Compound 74, 3-acetyl-8-bromo-5-chloro-2-((2-chloro-6-fluorobenzyl)sulfinyl)quinolin-4(1H)-one]	1.72	1.46	> 2	1.76	1.47	> 2	> 2	1.08	> 2	> 2	1.42	> 10	1.44	> 10	> 2	> 2	0.88	0.98	> 2	> 2
COc1cc(S(F)(F)(F)(F)F)ccc1C[S+]([O-])c1[nH]c2c(Br)ccc(Cl)c2c(=O)c1C(C)=O (stereo not shown) [Compound 75, 3-acetyl-8-bromo-5-chloro-2-((2-methoxy-4-(pentafluoro--sulfanyl)benzyl)sulfinyl)quinolin-4(1H)-one]	1.88	1.03	1.02	> 2	1.44	1.7	> 2	1.19	1.73	> 2	1.06	> 10	1.37	> 10	1.09	> 2	1.03	1.36	> 2	1.09
CC(=O)c1c([S+]([O-])Cc2cc(F)cc(S(F)(F)(F)(F)F)c2)[nH]c2c(Br)ccc(Cl)c2c1=O (stereo not shown) [Compound 76, 3-acetyl-8-bromo-5-chloro-2-((3-fluoro-5-(pentafluoro--sulfanyl)benzyl)sulfinyl)quinolin-4(1H)-one]	> 2	1.17	1.14	> 2	1.7	> 2	> 2	1.22	> 2	> 2	1.67	> 10	> 2	> 10	> 2	> 2	1.23	1.46	> 2	1.57
CC(=O)c1c([S+]([O-])Cc2ccc(I)cc2)[nH]c2c(Cl)ccc(Cl)c2c1=O (stereo not shown) [Compound 83, 3-acetyl-5,8-dichloro-2-((4-iodobenzyl)sulfinyl)quinolin-4(1H)-one]	1.94	1.05	1.34	> 2	> 2	> 2	> 2	1.25	1.54	> 2	1.45	> 10	> 2	> 2	1.35	1.24	1.51	0.82	> 2	1.75
Cc1cc(C[S+]([O-])c2[nH]c3c(Cl)ccc(Cl)c3c(=O)c2C(=O)C(C)C)no1 (stereo not shown) [Compound 86, 5,8-dichloro-3-isobutyryl-2-(((5-methylisoxazol-3-yl)methyl)sulfinyl)quinolin-4(1H)-one]	1.26	1.11	1.31	> 2	1.67	1.19	> 2	0.71	1.49	1.09	1.23	< 2	1.29	> 10	0.74	0.5	1	0.38	1.33	1.13

Second part, led by results:

IC50 [1, 4] [µM]	IC50 [1, 5] [µM]	IC50 [1, 6] [µM]	IC50 [1, 7] [µM]	IC50 [1, 8] [µM]	IC50 [2, 9] [µM]	IC50 [2, 10] [µM]	IC50 [2, 11] [µM]	IC50 [2, 12] [µM]	IC50 [2, 13] [µM]	IC50 [2, 14] [µM]	IC50 [2, 15] [µM]	IC50 (brain cancer cell lines; [16]) [µM]	IC50 (brain cancer cell lines; [17]) [µM]	IC50 (brain cancer cell lines; [18]) [µM]	IC50 (neuroblastoma cell lines) [µM]	IC50 (liver cancer cell lines) [µM]	IC50 [3] [µM]	IC50 (renal cancer cell lines) [µM]	SMILES	IC50 ([2]; MRC-5 cells, read-out: IC50) [µM]
1.42	1.23	1.39	> 2	> 2	> 2	> 2	0.86	1.48	1.35	1.05	> 10	> 2	> 10	> 2	0.6	1.07	0.59	1.38	CC(=O)c1c([S+]([O-])Cc2cccnc2)[nH]c2c(Br)ccc(Cl)c2c1=O (stereo not shown) [Compound 84, 3-acetyl-8-bromo-5-chloro-2-((pyridin-3-ylmethyl)sulfinyl)quinolin-4(1H)-one]	1.29
> 2	1.96	> 2	> 2	> 2	> 2	> 2	1.47	> 2	> 2	> 2	> 10	> 2	> 10	> 2	1.04	1.59	0.86	> 2	COC(=O)c1ccc(C[S+]([O-])c2[nH]c3c(Cl)ccc(Cl)c3c(=O)c2C(C)=O)o1 (stereo not shown) [Compound 89, methyl 5-(((3-acetyl-5,8-dichloro-4-oxo-1,4-dihydroquinolin-2-yl)sulfinyl)methyl)furan-2-carboxylate]	> 2
1.08	0.94	0.84	1.98	1.7	0.94	> 2	0.72	1.4	1.01	1.06	< 2	1.01	> 10	0.61	0.48	0.94	0.38	1.19	Cc1cc(C[S+]([O-])c2[nH]c3c(Br)ccc(Cl)c3c(=O)c2C(=O)C(C)C)no1 (stereo not shown) [Compound 95, 8-bromo-5-chloro-3-isobutyryl-2-(((5-methylisoxazol-3-yl)methyl)sulfinyl)quinolin-4(1H)-one]	0.97
